Source: patent US6365574B2, “Ethanolate of azithromycin, process for manufacture, and pharmaceutical compositions thereof” (Teva Pharmaceutical Industries Ltd., priority 1998, dated 2002)
Entries after “also recorded” stand apart in the source; their conditions may differ. Where two headings read alike, the source gives them in different places.

What was measured:
[1] = cited from earlier work
[2] = Hygroscopicity profile: controlled humidity chambers for two weeks, then Karl Fisher analysis of water content; format: physicochemical; conditions: compared with azithromycin monohydrate over a range of relative humidity (FIG. 1); monohydrate data from EP 298,650
Text: Hygroscopicity profiles were obtained by maintaining samples in controlled humidity chambers for a period of two weeks, followed by Karl Fisher analysis of water content.

Substance | hygroscopicity ([1]; according to EP 298,650) | also measured
9-deoxo-9a-aza-9a-methyl-9a-homoerythromycin A |  | hygroscopicity ([1]; according to CN 1,093,370): less hygroscopic than the dehydrate described in EP 298,650
9-deoxo-9a-aza-9a-methyl-9a-homoerythromycin A [dehydrate form of azithromycin] | less hygroscopic than the previously known monohydrate | 
9-deoxo-9a-aza-9a-methyl-9a-homoerythromycin A [ethanolate of azithromycin] |  | hygroscopicity [2]: less hygroscopic than azithromycin monohydrate; also recorded: less hygroscopic than the prior art monohydrate
9-deoxo-9a-aza-9a-methyl-9a-homoerythromycin A [monohydrate] | hygroscopic | 
